“Also recorded” adds a separate entry of the source.
What was measured:
[1] = system: murine vibrissae follicles; assay: Hair shaft elongation of murine vibrissae follicles cultured ex vivo; design: species or system C3H mice; settings: piperitone 0.1 mg/mL in culture medium
Excerpt: Five week old male C3H mice (supplied by Japan SLC, lnc., Hamamatsu, Japan) were used for isolation of vibrissae follicles. The mice were sacrificed and the vibrissae follicles were carefully dissected from the mystacial pad. Briefly, the mystacial pad was cut into two sides (left and right). The skin cut, picked at the edge by tweezers, was washed in (i) 70% Ethanol for 30 seconds, (ii) PBS for 10 seconds, (iii) fresh PBS for 10 seconds, and (iv) another fresh PBS for 10 seconds. This washing process was repeated twice. After washing, the skin cut was placed inverted to expose the vibrissae follicles in Dulbecco's Modified Eagle's Medium (DMEM; Wako Pure Chemical, Osaka, Japan) at 37° C. Under a dissecting microscope, the surrounding tissue was removed from the follicles using tweezers, carefully so as not to destroy the structure of the follicles. The isolated follicles were then placed immediately into Williams' E medium (Life Technologies, Carlsbad, USA).
From the isolated mouse vibrissae follicles, only early anagen follicles were selected and randomized into groups with 30 follicles per group. […]
Follicles in each of the treatment and control groups were incubated at 37° C. at 5% CO2 for 8 days, while exchanging the respective culture mediums every 2 days. From Day 1, elongation of hair shafts was observed and the elongation length was measured for each hair shaft every 24 hours from Day 1 to Day 8 using a micrometer under microscope. […]
Follicles in each of the treatment and control groups were incubated at 37° C. at 5% CO2 for 5 days, while exchanging the culture medium every 3 days. From Day 1, elongation of hair shafts was observed and the elongation length was measured for each hair shaft every 24 hours from Day 1 to Day 5. using a micrometer under microscope. […]

[2] = system: Alkaline Phosphatase (ALP) activity in dermal papilla (DP) cells treated with FGF-5; assay: Dermal papilla alkaline phosphatase (DP-ALP) cell assay; format: cell-based, human; settings: for relative ALP activity of DP cells treated FGF-5: 0.005-0.5 mg/ml, GSK3 inhibitor IX + rhFGF-5 1 μg/mL, 3 days, absorbance 490 nm
Procedure: Dermal papilla cells were prepared according to the methods described in WO2013/105417, Briefly, hairs were pulled from the scalp of a healthy subject showing normal non-alopecia hair growth using tweezers. Hair follicles with dermal papilla were thus obtained at a rate of approximately one for every 100 hairs pulled. The hair follicles with dermal papilla were separated from the hair using tweezers and transferred into a saline for inspection under a microscope. Under a microscope, each dermal papilla was isolated from a respective hair follicle using tweezers and a scalpel. Approximately 2000 isolated dermal papilla cells were then transferred to a 35 mm cell culture dish together 1-2 ml of cell culture medium, after which time the cells were cultured at 37° C. to produce a primary cell culture of dermal papilla. The cell culture medium consisted of approximately 90% DMEM medium, 10% fetal bovine serum (final concentration: 10%), FGF2 (final, concentration: 10 ng/ml), and penicillin-streptornycin solution (final concentration: 1 μg/ml) for every 2 mL of medium. Cell culture conditions were maintained for more than 14 days until dermal papilla cells covered approximately 40% of the area of the 35 mm culture dish, at which time subcultures were performed. To prepare the subcultures, the cell culture medium was removed from the 35 mm culture dish and the adherent cells were washed once with 2 ml of saline (at room temperature). 1 ml Trypsin-EDTA solution (0.1% trypsin and 0.02% EDTA) was then added to the 35 mm culture dish and left to stand for 4 minutes at 37° C. Dissociated dermal papilla cells were then recovered from the 35 mm dish, and seeded to a new 100 mm dish, and cultured in media under the same conditions as for the primary cell culture described above.
When the dermal papilla cells covered approximately 70-80% of the area of each 100 mm culture dish, the sub-confluent cells were subcultured as before. The process was repeated until sufficient cells were obtained to screen compounds of interest.
Once sufficient DP cells were obtained, the cells were harvested to provide a cell suspension. To harvest the DP cells, the cell culture medium was removed from the culture dish, and the adherent cells were washed with saline at room temperature. Trypsin-EDTA solution was then added under conditions described supra to dissociate the cells from the cell culture dish. Approximately 5×10^5 of the dissociated cells were resuspended in 500 ml of assay medium containing 445 ml of DMEM medium, 50 ml of 10% fetal calf serum and 5 ml of antibiotic.
Aliquots of the cell suspension were transferred to the wells of cell culture dishes, and a single monoterpenoid listed in Example 1 e.g., (−)-4-terpinen-4-ol, (+)-4-terpinen-4-ol. (±)-4-terpinen-4-ol, α-terpineol, nonanal, linalyl acetate or piperitone, is added to each well at a concentration of 0.005 (mg/ml) or 0.01 (mg/ml) or 0.05 (mg/ml) or 0.1 (mg/ml) or 0.5 (mg/ml). Cell suspensions were transferred to wells of a further cell culture dish to which minoxidil was then added at a concentration of 0.005 (mg/ml) or 0.01 (mg/ml) or 0.05 (mg/ml) or 0.1 (mg/ml) or 0.5 (mg/ml). A Wnt/β-catenin pathway activation agent e.g., Wnt3a or GSK-3 Inhibitor IX, as added to each of the cell cultures to produce an “activated cell culture”. Control cell cultures containing the same monoterpenoid compound or minoxodil, but lacking the Wnt/β-cinenin pathway activation agent, were processed in parallel. These activated and control cell cultures were divided further into duplicate cell culture samples either lacking FGF-5 or to which recombinant human FGF-5 (rhFGF-5; 1 μg/mL)) was added.
The cell culture samples were each cultured at 37° C. for 3 days under atmosphere containing less than 5% CO2. […]

CC1=CC(=O)C(C(C)C)CC1 (centres unmarked) [Piperitone, 3-Methyl-6-(propan-2-yl)cyclohex-2-en-1-one]
hair shaft elongation over time ([1]; 5 days (FIG. 22)): continued steadily and consistently throughout the culture period
hair growth ([1]; versus control): increased hair growth
relative ALP activity of DP cells treated FGF-5 [2]: increased relative ALP activity
relative ALP activity of DP cells treated FGF-5 ([2]; listed as piperitone): high alkaline phosphatase activity; also recorded: higher alkaline phosphatase activity in dermal papillae than a racemic mixture of terpinen-4-al or (+)-Terpinen-4-ol
FGF-5-inhibitory activity ranked from most active to least active by DP-ALP assay ([2]; rank order): Piperitone>(−)-terpinen-4-ol>(±)-Terpinen-4β-Terpineol> (+)-Terpinen-4-ol > Linalyl Acetate

Source: patent publication US20160374979A1, “Method of Treatment of Alopecia with Monoterpenoids” (CELLMID LIMITED, priority 2013, published 2016)
